# Measured values taken from paper PMC7096398, “Oxytocin Receptors Regulate Social Preference in Zebrafish” (Scientific Reports, 2020).
# Values joined by “and” are separate entries in the source; they are usually repeats but may differ in a detail not shown here. Equal entries are not always repeated. Where two headings read alike, the source gives them in different places. Positions of bridges follow the written chain, without caps; N, C: chain ends. Residues, ends and D or L forms follow the SMILES beside them.
# How the values were obtained:
# Oxtr = biological target: T1, Oxtr (Danio rerio, UniProt E4W699); assay: Inositol phosphate accumulation assay, agonist potency at Oxtr; format: cell-based, zebrafish
# T1 construct: host or cells: HEK293
# T1 sequence (E4W699 1-388): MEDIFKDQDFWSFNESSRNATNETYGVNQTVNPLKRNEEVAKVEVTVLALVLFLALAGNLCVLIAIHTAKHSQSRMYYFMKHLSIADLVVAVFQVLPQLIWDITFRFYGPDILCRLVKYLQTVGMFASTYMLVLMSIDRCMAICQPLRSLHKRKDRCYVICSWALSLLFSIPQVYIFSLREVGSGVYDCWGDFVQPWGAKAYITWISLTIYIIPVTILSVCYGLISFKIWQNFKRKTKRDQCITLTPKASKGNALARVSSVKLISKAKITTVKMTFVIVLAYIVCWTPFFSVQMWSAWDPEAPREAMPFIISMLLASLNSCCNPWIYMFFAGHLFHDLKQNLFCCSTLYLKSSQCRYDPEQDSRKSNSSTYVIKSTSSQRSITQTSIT
# Protocol: (§1) The receptor constructs were ordered from GeneScript and subcloned into a pcDNA3.1/CT-GFP-TOPO vector. The coding sequences of the GenBank entries NM_001199370.1 (oxtr), NM_001199369.1 (oxtrl), NM_001301114.1 (avpr1aa), and NM_001297676.1 (avpr1ab) were used for synthesis. The stop codons were removed, and an additional […] was added to facilitate hybrid protein expression with GFP in frame from the vector. The GCCACC Kozak sequence was inserted before the start codons. After transformation of the plasmid constructs into TOP10 competent cells (Thermo Fisher Scientific), the Maxiprep (Thermo Fisher Scientific) method was used to amplify the plasmids for transfection.
# (§2) The Inositol phosphate accumulation assay was performed according to previous descriptions to measure the potency of different ligands for zebrafish different oxytocin related receptors. Each receptor construct was transfected into HEK293 cells using Lipofectamine 2000 (Thermo Fisher Scientific). Myo2-^3H-inositol (PerkinElmer) at 3 μCi/mL was added the day after transfection. On day three, cells were re-suspended in assay buffer (10 mM LiCl, 20 mM HEPES, 137 mM NaCl, 5 mM KCl, 0.44 mM KH2PO4, 4.2 mM NaHCO3, 1.2 mM MgCl2, 1 mM CaCl2, and 10 mM glucose), after incubation in a PBS/EDTA mixture (0.2 g/L). After 10 minutes of pre-incubation at 37 °C, the cells were stimulated with serial dilution of peptides for 25 minutes at 37 °C. […] Cells were lysed for 60 minutes at 4 °C with an equal volume of 0.8 M perchloric acid, and then neutralised with KOH/KHCO3 solution. Ion exchange chromatography on AG 1-X8 resin (Bio-Rad) was used to collect the generated ^3H-inositol phosphates. The resin was washed with buffer containing 5 mM Na2B4O7 and 60 mM NH4-formate and eluted with buffer containing 1 M NH4-formate and 0.1 M formic acid. Samples were mixed with OptiPhase HiSafe (PerkinElmer Waltham, MA, USA) and ^3H radioactivity was measured with a Tri-Carb 2910TR liquid scintillation counter (PerkinElmer Waltham, MA, USA). The assays were performed in duplicate for each concentration and repeated at least 3 times.
# Avpr1ab = biological target: T2, Avpr1ab (Danio rerio, UniProt A0A8M1P6E3); assay: Inositol phosphate accumulation assay, agonist potency at Avpr1ab; format: cell-based, zebrafish
# T2 sequence (A0A8M1P6E3 1-410): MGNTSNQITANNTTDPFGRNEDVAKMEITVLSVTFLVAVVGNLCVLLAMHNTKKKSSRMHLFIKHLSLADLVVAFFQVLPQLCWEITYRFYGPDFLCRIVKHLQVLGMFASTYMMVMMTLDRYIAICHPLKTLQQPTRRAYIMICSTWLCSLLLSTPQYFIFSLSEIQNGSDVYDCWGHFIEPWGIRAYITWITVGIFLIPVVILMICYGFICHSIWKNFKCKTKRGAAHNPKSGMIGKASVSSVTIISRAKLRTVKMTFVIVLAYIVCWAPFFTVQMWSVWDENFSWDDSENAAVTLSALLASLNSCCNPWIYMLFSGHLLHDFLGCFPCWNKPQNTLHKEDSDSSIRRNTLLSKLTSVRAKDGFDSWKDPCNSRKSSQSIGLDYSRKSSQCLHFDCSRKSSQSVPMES
# Protocol: as §1, §2
# Avpr1aa = biological target: T3, Avpr1aa (Danio rerio, UniProt A0A8M1P1H3); assay: Inositol phosphate accumulation assay, agonist potency at Avpr1aa; format: cell-based, zebrafish
# T3 sequence (A0A8M1P1H3 1-379): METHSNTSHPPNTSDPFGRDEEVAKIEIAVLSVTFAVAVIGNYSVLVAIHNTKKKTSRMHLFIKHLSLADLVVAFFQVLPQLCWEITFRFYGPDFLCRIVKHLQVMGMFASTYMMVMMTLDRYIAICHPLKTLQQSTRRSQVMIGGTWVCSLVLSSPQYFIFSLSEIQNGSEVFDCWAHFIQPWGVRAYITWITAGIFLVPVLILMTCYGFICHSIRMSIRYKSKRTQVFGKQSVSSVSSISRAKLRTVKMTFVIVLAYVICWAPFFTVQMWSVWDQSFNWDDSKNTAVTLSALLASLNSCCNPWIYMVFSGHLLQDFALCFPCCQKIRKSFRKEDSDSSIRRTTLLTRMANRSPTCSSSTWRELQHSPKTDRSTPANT
# Protocol: as §1, §2
# Oxtrl = biological target: T4, Oxtrl (Danio rerio, UniProt E4W698); assay: Inositol phosphate accumulation assay, agonist potency at Oxtrl; format: cell-based, zebrafish
# T4 construct: host or cells: HEK293
# T4 sequence (E4W698 1-382): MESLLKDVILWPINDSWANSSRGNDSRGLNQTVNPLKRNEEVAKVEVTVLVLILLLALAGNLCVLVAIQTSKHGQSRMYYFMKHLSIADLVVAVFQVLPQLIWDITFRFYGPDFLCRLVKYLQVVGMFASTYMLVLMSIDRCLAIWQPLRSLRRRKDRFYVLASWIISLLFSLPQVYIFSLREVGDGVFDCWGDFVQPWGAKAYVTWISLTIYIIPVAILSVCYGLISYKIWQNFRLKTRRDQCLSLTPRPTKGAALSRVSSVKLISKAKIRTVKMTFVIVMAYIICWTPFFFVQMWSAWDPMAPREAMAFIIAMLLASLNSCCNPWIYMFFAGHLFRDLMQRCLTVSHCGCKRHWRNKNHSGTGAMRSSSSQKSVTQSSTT
# Protocol: as §1, §2
# zebrafish = test system: zebrafish; set-up: method as in 4 sources, ref 42 = [42]; PMID 21956239; doi:10.1007/s00213-011-2482-2; 42. Braida D Neurohypophyseal hormones manipulation modulate social and anxiety-related behavior in zebrafish Psychopharmacology (Berl) 2012 220 319 330 10.1007/s00213-011-2482-2 21956239 ||| ref 44 = [44]; PMID 27247142; doi:10.1016/j.bbr.2016.05.059; 44. Zimmermann FF Gaspary KV Siebel AM Bonan CD Oxytocin reversed MK-801-induced social interaction and aggression deficits in zebrafish Behav Brain Res 2016 311 368 374 10.1016/j.bbr.2016.05.059 2724 ||| ref 51 = [51]; doi:10.1163/1568539x-00003261; 51. Lindeyer CM Langen EMA Swaney WT Reader SM Nonapeptide influences on social behaviour: effects of vasotocin and isotocin on shoaling and interaction in zebrafish Behaviour 2015 152 897 915 10.1163 ||| ref 27 = [27]; PMID 26347614; doi:10.3389/fncir.2015.00039; 27. Dreosti E Lopes G Kampff AR Wilson SW Development of social behavior in young zebrafish Front Neural Circuits 2015 9 39 10.3389/fncir.2015.00039 26347614 PMC4539524; conditions: cited from earlier work
# Description: Thus far, dopamine[56] and serotonin[57] in the mesolimbic system and excitation-inhibition balance[58] seem to play a prominent role in social investigation in rodents. Similarly, levels of dopamine and serotonin are modulated in socially interacting fish[59]–[61] and social preference behaviour decreases after treatment with a dopamine D1 receptor antagonist. […] In rodents, release of ... || (+ 1 further places)
# [1] = HEK293 cells transfected with zebrafish Avpr1ab, 3H-inositol phosphate accumulation, 10 min pre-incubation, 25 min stimulation, 37 °C, duplicates, table: mean ± SEM, n = 3, read-out: Potency (EC50) at Avpr1ab
# [2] = HEK293 cells transfected with zebrafish Avpr1aa, 3H-inositol phosphate accumulation, 10 min pre-incubation, 25 min stimulation, 37 °C, duplicates, table: mean ± SEM, n = 3 (zOT n = 4), read-out: Potency (EC50) at Avpr1aa
# [3] = read-out: Potency (EC50) at Oxtrl
Compound,EC50 (Oxtr),EC50 (Avpr1ab; [1]),EC50 (Avpr1aa; [2]),EC50 (Oxtrl; [3]),other results
CC[C@H](C)[C@@H]1NC(=O)[C@H](Cc2ccc(O)cc2)NC(=O)[C@@H](N)CSSC[C@@H](C(=O)N2CCC[C@H]2C(=O)N[C@@H](CC(C)C)C(=O)NCC(N)=O)NC(=O)[C@H](CC(N)=O)NC(=O)[C@H](CCC(N)=O)NC1=O [OT],20 to 50 nM and 47.9 nM,20 to 50 nM and 42.1 nM,20 to 50 nM and 21.5 nM,20 to 50 nM and 34.8 nM,–
CC[C@H](C)[C@@H]1NC(=O)[C@H](Cc2ccc(O)cc2)NC(=O)[C@@H](N)CSSC[C@@H](C(=O)N2CCC[C@H]2C(=O)N[C@H](C(=O)NCC(N)=O)[C@@H](C)CC)NC(=O)[C@H](CC(N)=O)NC(=O)[C@H](CO)NC1=O [zOT] (H-CYISNCPIG-NH2; disulfide 1-6),–,3.52 ± 0.94 nM,317 ± 79 nM,3.14 ± 1.1 nM,"EC50 (Oxtr; HEK293 cells transfected with zebrafish Oxtr, 3H-inositol phosphate accumulation, 10 min pre-incubation, 25 min stimulation, 37 °C, duplicates, table: mean ± SEM, n = 3, read-out: Potency (EC50) at Oxtr): 2.99 ± 0.93 nM"
carbetocin,–,–,–,–,Social deficits following MK-801 exposure (zebrafish; zebrafish exposed to glutamate antagonist MK-801): rescued social deficits
CCO [ethanol],–,–,–,–,"Social preference, developing zebrafish (zebrafish; high concentrations): inhibit social preference"
C[C@]12N[C@H](Cc3ccccc31)c1ccccc12 [MK-801],–,–,–,–,Social preference deficits (zebrafish; zebrafish): deficits in social preference induced
CC[C@H](C)[C@@H]1NC(=O)[C@H](Cc2ccc(O)cc2)NC(=O)[C@@H](N)CSSC[C@@H](C(=O)N2CCC[C@H]2C(=O)N[C@@H](CCCNC(=N)N)C(=O)NCC(N)=O)NC(=O)[C@H](CC(N)=O)NC(=O)[C@H](CCC(N)=O)NC1=O [zVP] (H-CYIQNCPRG-NH2; disulfide 1-6),11 ± 3 nM,–,–,–,EC50 (Avpr1ab): 2.79 ± 1.4 nM; EC50 (Avpr1aa): > 317 nM and 727 nM; EC50 (Oxtrl): 27 ± 9.5 nM
